# How the values were obtained:
# [1] = Reverse phase HPLC analysis of adjuvant co-melted with 1-monopalmitoyl glycerol (thermostability); format: physicochemical
# Procedure: Reverse phase HPLC analysis of PHAD and MAV4 co-melted with 1-monopalmitoyl glycerol at the inverted melt method temperature (Example 4) was used to evaluate the thermostability or thermolability of the two adjuvants under these thermal conditions. In the procedure, the samples were prepared as follows, in isopropanol (IPA) using 1.5 ml autoinjection vials as duplicates: PHAD: 20 μg PHAD+180 μg 1-monopalmitoyl glycerol (1:9 wt ratio); MAV4: 10 μg+90 μg 1-monopalmitoyl glycerol (1:9 wt ratio).
# The samples were lyophilized overnight. The dried samples were melted for six minutes at 120° C. and 140° C. Each sample was then dissolved in IPA to give a concentration of 0.1 μg/μl for an HPLC load of 20 μL.
# [2] = test system: Human Peripheral Blood Mononuclear Cell (hPBMC); test: Cytokine induction assay (BD Cytometric Bead Array) in hPBMC culture supernatants; format: cell-based; details: human PBMCs (n=3) stimulated 48 hours, CBA assay
# Description: The BD™ Cytometric Bead Array (CBA) Human inflammatory Cytokines Kit was used to quantitatively measure Tumor Necrosis Factor (TNF a), Interleukin-6 (IL-6) and Interleukin-1β (IL-1β) protein levels in single samples of Human Peripheral Blood Mononuclear Cell (hPBMC) culture supernatants pretreated with either the adjuvant PHAD or MAV4. The detection reagent provided in the kit was a mixture of phycoerythrin (PE)-conjugated antibodies, which provides a fluorescent signal in proportion to the amount of bound cytokine.
# When the capture beads and detector reagent are incubated with an unknown sample containing recognized cytokines, sandwich complexes (capture bead+cytokine+detection reagent) are formed. These complexes are measured using flow cytometry.
# To perform the assay lyophilized human inflammatory cytokine standards were reconstituted with assay diluent and serially diluted (standard curve for each protein covers a defined set of concentrations from […]) and test samples were diluted to the desired dilution factor using the assay diluent before mixing all assay tubes with capture beads (50 μl) and PE detection reagent (50 μl). […] Samples were then analyzed by flow cytometry and data was analyzed using FCAP Array Software. […]
substance,measurement,setting,value
phosphorylated hexaacyl disaccharide [PHAD],Area Under the Curve (AUC) of the HPLC peak,"[1]; co-melted with 1-monopalmitoyl glycerol (1:9 wt), melted six minutes at 140° C. versus 120° C.",significant decrease
same,minor peaks (degradation) in the chromatogram,"[1]; co-melted with 1-monopalmitoyl glycerol, melted at 120° C. and 140° C.",No minor peaks were observed
same,"secretion of TNF-α, IL-1β and IL-6",[2],induced dose-dependent immune responses

# From patent US10105440B2, “Synthetic derivatives of MPL and uses thereof” (VARIATION BIOTECHNOLOGIES INC., priority 2011, dated 2018)
